Measurements as given in patent publication US8586719B2, “Triterpenes for modulating gene expression and cell membrane, and as antiprotozoal agents” (Pacific Arrow Limited, priority 2005, dated 2013).

How the values were obtained:
[1] = system: potassium channel, subfamily U, member 1 (KCNU1); test: Microarray gene expression in ES2 cells: potassium channel; type: cell-based, human; conditions: ID 237273_at
Source text: (§1) The composition comprises bioactive compounds from natural plants or synthesis. The majority of the plants are from the Sapindaceae family, which has 140-150 genera with 1400-2000 species. The program is based on our purification methods and biological assays including the MTT assay See International Application No. PCT/US05/31900, filed Sep. 7, 2005, U.S. Ser. No. 11/289,142, filed Nov. 28, 2005, and U.S. Ser. No. 11/131,551, filed May 17, 2005, and PCT/US2008/002086, 1188-ALA-PCT, filed Feb. 15, 2008, the contents of which are incorporated herein by reference. The details of Analysis of gene expression of ES2 cells after Y-treatment by Microarray, Data Analysis Methods and Western blot in PCT/US2008/002086, 1188-ALA-PCT, filed Feb. 15, 2008, the contents of which are incorporated herein by reference

angiopoietin 2 = test: Microarray gene expression in ES2 cells: angiopoietin 2; type: cell-based, human; conditions: micro array
Source text: as §1
Angiogenesis is a process involving the growth of new blood vessels. It is a normal process in growth and development. However, this is also a fundamental step in the transition of tumors from a dormant state to a malignant state. The angiopoietins are protein growth factors that modulate angiogenesis. […]

[2] = system: protein phosphatase 1, regulatory (inhibitor) subunit 15A (PPP1R15A); test: Microarray gene expression in ES2 cells: PPP1R15A; type: cell-based, human
Source text: as §1

Fibronectin [3] = test: Fibronectin secretion, brain glioblastoma T98G cells; type: cell-based, human; conditions: Homo sapiens, T98G
Method: (§2) Reduction of Fibronectin secretion from ES2 cells after xanifolia-Y treatment. • (Results of F1, F3, F4, F5, F7, F8, F11, F12A, F15, F16, F17) Data in PCT/US2008/002086, 1188-ALA-PCT, filed Feb. 15, 2008 are incorporated herein by reference • (F11) For lung carcinoma cells (H460), at concentration of 20 ug/ml, there are inhibitions of Fibronectin secretion ranged from 20-60%. • (F12A) For bladder carcinoma cells (HTB-9), Xanifolia-Y (10 ug/ml) inhibits 50% of Fibronectin secretion. • (F15) In liver HepG2 cells. 10 ug/ml of xanifolia-Y inhibits 42% secretion of Fibronectin. • (F16) Incubation of brain glioblastoma T98G cells with 10 ug/ml of xanifolia-Y inhibits 27% Fibronectin secretion and with 20 ug/ml Y inhibits 74% Fibronectin secretion. • (F17) For skin SK-MeI-5 cells, the inhibition is 40-57% with 20 ug/ml of Xanifolia-Y.

[4] = system: insulin-like growth factor binding protein 1 (IGFBP1); test: Microarray gene expression in ES2 cells: IGFBP1; type: cell-based, human; conditions: probe set 205302_at
Source text: as §1

[5] = system: insulin-like growth factor binding protein 6 (IGFBP6); test: Microarray gene expression in ES2 cells: IGFBP6; type: cell-based, human; conditions: probe set 203851_at
Source text: as §1

Fibronectin [6] = test: Fibronectin secretion, skin SK-MEL-5 cells; type: cell-based, human; conditions: Homo sapiens, SK-MEL-5; skin SK-MeI-5 cells; 20 ug/ml
Method: as §2

TNC (Tenascin C) = test: Gene expression by Real-time PCR: TNC; type: cell-based; conditions: control = 100
Source text: Determination of gene expression by Real-time PCR method (Brilliant QPCR, Agilent Technologies): The real-time polymerase chain reactions further confirm the results obtained from micro array analysis. The Real-time PCR results (shown below) confirmed that Compound Y3 and YM increase the expression of the genes: ANGPT2, DDIT3, LIF and NFKB1Z

tumor bearing mice = test: Animal studies in tumor bearing mice; type: in vivo
Source text: (Reference Experiments 7, 8, 9 in U.S. Ser. Nos. 11/683,198, filed on Mar. 7, 2007,). The animals died sooner if the treatment of Xanifolia-Y was delayed (comparing results of treatments started from 1, 4 or 10 days after tumor inoculation). […] Ovarian carcinoma cells express high levels of adhesion molecules. Adhesion proteins are present in both cancer cells and mesothelial cells. While the lost of adhesion blocks of the protein accessibility due to a result of modulating by Xanifolia-Y, In an embodiment, the interaction of Xanifolia-Y with membrane alter the adhesion protein's binding site(s).

In the case of `C/C=C(/C)C(=O)O[C@H]1[C@H](OC(=O)/C(C)=C\C)[C@@]2(CO)C(CC1(C)C)C1=CCC3[C@@]4(C)CC[C@H](O[C@@H]5OC(C(=O)O)[C@@H](O)[C@@H](O[C@@H]6O[C@@H](CO)[C@@H](O)C6O)C5O[C@@H]5OC(CO)[C@H](O)[C@@H](O)C5O)C(C)(C)C4CC[C@@]3(C)[C@]1(C)[C@@H](O)[C@H]2O` (stereo partly drawn) [Y, 3-O-[β-D-galactopyranosyl(1→2)]-α-L-arabinofuranosy (1→3)-β-D-glucuronopyranosyl-21,22-O-diangeloyl-3β, 15α, 16α, 21β, 22α, 28-hexahydroxyolean-12-ene], the “KCNU1 expression, treated/D (DMSO control)” value [1] is reported as −4.0, the “gene expression of angiopoietin 2” value (angiopoietin 2) is reported as “promote” and the “PPP1R15A expression (given as Y/D, YM/D)” value ([2]; 37028_at) is reported as 2.4. The “PPP1R15A expression (given as Y/D, YM/D)” value ([2]; 202014_at) was 2.6, the inhibition at 10 µg/mL (Fibronectin [3]; read-out: % inhibition of Fibronectin secretion) was 27% and the inhibition at 20 µg/mL (Fibronectin [3]; read-out: inhibition of Fibronectin secretion) was 74%. The “IGFBP1 expression, treated/D (DMSO control)” value [4] was −1.7, the “IGFBP6 expression, treated/D (DMSO control)” value [5] was −1.3 and the inhibition at 20 µg/mL (Fibronectin [6]) was 40 to 57%. For the same molecule, the “TNC expression, % of control” value (TNC (Tenascin C)) was 41.1 % of control, the “life span of tumor bearing mice” value (tumor bearing mice; Experiments 7, 8, 9 of U.S. Ser. No. 11/683,198) was “extended the life span” and the “migration or metastasis of the inoculated cancer cells” value (tumor bearing mice; treatment started 1, 4 or 10 days after tumor inoculation) was “inhibits migration or metastasis”.
